Results taken from patent US12550899B2, “Topramezone derivative and use thereof” (priority 2023, dated 2026).
“Also recorded” adds a separate entry of the source.

Tests used:
[1] = tested on: Corn (White Waxy Corn); test: Corn safety laboratory test; type: in vivo; conditions: for Fresh Weight / Fresh Weight Control Efficacy: 15 days after application
Description: Three corn varieties: Zhengdan 958, white waxy corn, and sweet corn (Runhua sweet corn).
The soil used for the test was a mixture of surface 20 cm loam and vermiculite, mixed in a volume ratio of 3:1 to form a culture soil. The test corn was cultured in a glass greenhouse with a temperature ranging from 25° C. to 35° C. and under natural light.
(§1) A measured quantity of corn seeds were sown in plastic pots with a diameter of 15 cm, and covered with 2-3 cm of soil. The ports were then placed in enamel trays filled with water, and watered by bottom irrigation. After sowing, the pots were transferred to the glass greenhouse for cultivation and growth.
In the corn safety test, dosages were set for the two Compounds (Compound I of the present invention and Compound II of the present invention) and the control herbicide Topramezone, which were 15, 30, 60, and 120 grams of active ingredient per hectare respectively. In addition, a blank control was also prepared.
The required amount of the herbicide was accurately measured out, an appropriate amount of emulsifier and organic solvent were added to dissolve the herbicide, and then a certain amount of water was added therein until the herbicide was diluted to the required dosage by using the serial dilution method for standby.
Corn stems and leaves were uniformly sprayed at the 3-4-leaf stage.
(§2) The ASS-3 automatic control spraying system with a fan-shaped nozzle was used indoors for herbicide application. Depending on the nozzle pressure and flow rate, 50 mL of herbicide solution was applied to a spraying area of 1.1 m^2 (which was equivalent to the water consumption of 30 L per mu). The system's operating speed was calibrated. The plastic pots to be treated were arranged evenly on the spraying platform to ensure uniform treatment. The spray pressure was set to 0.35 MPa, and the flow rate of the fan-shaped nozzle was set to 800 mL/min. The spraying was carried out in sequence from the low dosage to the high dosage. Each treatment was repeated three times.
The herbicide was applied once. After spraying, the pots were air-dried for one day and then placed in the glass greenhouse. Regular watering was conducted to maintain moisture.
After application of the herbicide, whether there were any phytotoxic symptoms in the corn for each treatment was recorded. If yes, the phytotoxicity symptoms and grade were recorded in detail. 15 days after application, the fresh weight of the corn in each treatment was measured and the fresh weight control efficacy was calculated to assess the safety of the herbicide on the corn.
The treatment results were calculated according to the following formula: fresh weight control efficacy (%)=(control fresh weight−treatment fresh weight)/control fresh weight×100.

[2] = tested on: Digitaria sanguinalis; test: Laboratory rainfastness test (foliar spray, simulated rainfall); type: in vivo; conditions: for Average fresh weight / Control efficacy: 20 days post-application
Description: Refer to the “Pesticides guidelines for laboratory bioactivity tests Part 4: Foliar spray application test for herbicide activity, NY/T 1155.4-2006”.
The soil used for the test was a mixture of surface 20 cm loam and vermiculite, mixed in a volume ratio of 3:1 to form a culture soil. The test weeds were cultured in a glass greenhouse with a temperature ranging from 25° C. to 35° C. and under natural light.
as §1, with “Digitaria sanguinalis” for “corn”, “9” for “15”, “1-2 mm” for “2-3 cm”, “the water seeped to the soil surface,” for “sowing,”, “standby.” for “cultivation and growth.”
Five dosages were set for Compound I, Compound II and the control herbicide Topramezone, which were 3.75, 7.5, 15, 30 and 60 grams of active ingredient per hectare respectively. In addition, a blank control was also prepared.
The required amount of the herbicide was accurately measured out and directly added with water, which was diluted to the required dosage by using the serial dilution method for standby.
as §2, with “test was conducted on Digitaria sanguinalis at the two-leaf and one-heart stage, with the stems and leaves both sprayed uniformly. The ASS-4” for “ASS-3”, “four” for “three”
The rainfastness test was set as follows: at 0.5 hours, 1.0 hour, 3.0 hours, and 6.0 hours after the application of the herbicide, the weeds that have already been sprayed with the herbicide were subjected to stem and leaf showering with a specific shower equipment simulating rainfall. Weeds that were not subjected to the showering treatment served as the control group.
The damage symptoms of the weeds (such as growth inhibition, chlorosis, malformation, etc.) were carefully recorded at 3, 7, 10, and 20 days after herbicide application. A visual comparison of the herbicide effectiveness was made after simulated rainfall at different time intervals. At 20 days post-application, the fresh weight of the aboveground parts of the weeds from each treatment group was measured, and the fresh weight control efficacy was calculated.
The treatment results were calculated according to the following formula: weed fresh weight control efficacy (%)=(control fresh weight−treatment fresh weight)/control fresh weight×100. A DPS statistical software was used to conduct regression analysis on the logarithmic values of the herbicide dosage and the probit values of the weed fresh weight control efficacy, and the correlation coefficient, GR50, GR90, and the 95% confidence interval were calculated.

[3] = White Waxy Corn, dosage 15 g a.i./ha
[4] = White Waxy Corn, dosage 30 g a.i./ha
[5] = White Waxy Corn, dosage 60 g a.i./ha
[6] = White Waxy Corn, dosage 120 g a.i./ha
[7] = No spraying (no simulated rainfall), dosage 3.75 g/hectare
[8] = No spraying (no simulated rainfall), dosage 7.5 g/hectare
[9] = No spraying (no simulated rainfall), dosage 15 g/hectare
[10] = No spraying (no simulated rainfall), dosage 30 g/hectare
[11] = No spraying (no simulated rainfall), dosage 60 g/hectare
[12] = Spraying water 0.5 hour after herbicide application, dosage 3.75 g/hectare
[13] = Spraying water 0.5 hour after herbicide application, dosage 7.5 g/hectare
[14] = Spraying water 0.5 hour after herbicide application, dosage 15 g/hectare
[15] = Spraying water 0.5 hour after herbicide application, dosage 30 g/hectare
[16] = Spraying water 0.5 hour after herbicide application, dosage 60 g/hectare
[17] = Spraying water 1.0 hour after herbicide application, dosage 3.75 g/hectare
[18] = Spraying water 1.0 hour after herbicide application, dosage 7.5 g/hectare
[19] = Spraying water 1.0 hour after herbicide application, dosage 15 g/hectare
[20] = Spraying water 1.0 hour after herbicide application, dosage 30 g/hectare
[21] = Spraying water 1.0 hour after herbicide application, dosage 60 g/hectare
[22] = Spraying water 3.0 hour after herbicide application, dosage 3.75 g/hectare
[23] = Spraying water 3.0 hour after herbicide application, dosage 7.5 g/hectare
[24] = Spraying water 3.0 hour after herbicide application, dosage 15 g/hectare
[25] = Spraying water 3.0 hour after herbicide application, dosage 30 g/hectare
[26] = Spraying water 3.0 hour after herbicide application, dosage 60 g/hectare
[27] = Spraying water 6.0 hour after herbicide application, dosage 3.75 g/hectare
[28] = Spraying water 6.0 hour after herbicide application, dosage 7.5 g/hectare
[29] = Spraying water 6.0 hour after herbicide application, dosage 15 g/hectare
[30] = Spraying water 6.0 hour after herbicide application, dosage 30 g/hectare
[31] = Spraying water 6.0 hour after herbicide application, dosage 60 g/hectare
[32] = rain 0.5 h, 1.0 h and 3.0 h after application

SMILES: Cc1c(C(=O)c2cnn(C)c2O)ccc(S(C)(=O)=O)c1C1=NOCC1 [Topramezone]
- Corn Growth Status [1, 3]: Good, Normal Growth
- Fresh Weight [1, 3]: 9.7 g
- Fresh Weight Control Efficacy [1, 3]: −2.7%
- Corn Growth Status [1, 4]: Good, Normal Growth
- Fresh Weight [1, 4]: 9.4 g
- Fresh Weight Control Efficacy [1, 4]: 0.3%
- Corn Growth Status [1, 5]: Good, Normal Growth
- Fresh Weight [1, 5]: 9.5 g
- Fresh Weight Control Efficacy [1, 5]: −0.3%
- Corn Growth Status [1, 6]: Good, Normal Growth
- Fresh Weight [1, 6]: 9.0 g
- Fresh Weight Control Efficacy [1, 6]: 4.5%
- Growth of corn / phytotoxicity (in words) ([1]; white waxy corn, highest dosage, 120 grams of active ingredient per hectare): normal, without causing any phytotoxicity
- Average fresh weight [2, 7]: 6.2 g
- Control efficacy [2, 7]: 4.6%
- Average fresh weight [2, 8]: 5.0 g
- Control efficacy [2, 8]: 23.4%
- Average fresh weight [2, 9]: 3.7 g
- Control efficacy [2, 9]: 43.7%
- Average fresh weight [2, 10]: 2.3 g
- Control efficacy [2, 10]: 64.8%
- Average fresh weight [2, 11]: 1.2 g
- Control efficacy [2, 11]: 82.4%
- Average fresh weight [2, 12]: 6.5 g
- Control efficacy [2, 12]: 0.0%
- Average fresh weight [2, 13]: 6.0 g
- Control efficacy [2, 13]: 7.7%
- Average fresh weight [2, 14]: 5.9 g
- Control efficacy [2, 14]: 10.3%
- Average fresh weight [2, 15]: 5.5 g
- Control efficacy [2, 15]: 16.5%
- Average fresh weight [2, 16]: 4.6 g
- Control efficacy [2, 16]: 29.1%
- Average fresh weight [2, 17]: 6.4 g
- Control efficacy [2, 17]: 2.7%
- Average fresh weight [2, 18]: 6.0 g
- Control efficacy [2, 18]: 8.0%
- Average fresh weight [2, 19]: 5.7 g
- Control efficacy [2, 19]: 13.4%
- Average fresh weight [2, 20]: 5.3 g
- Control efficacy [2, 20]: 19.2%
- Average fresh weight [2, 21]: 4.7 g
- Control efficacy [2, 21]: 28.0%
- Average fresh weight [2, 22]: 6.4 g
- Control efficacy [2, 22]: 1.5%
- Average fresh weight [2, 23]: 5.8 g
- Control efficacy [2, 23]: 10.7%
- Average fresh weight [2, 24]: 5.7 g
- Control efficacy [2, 24]: 13.4%
- Average fresh weight [2, 25]: 4.1 g
- Control efficacy [2, 25]: 36.8%
- Average fresh weight [2, 26]: 3.3 g
- Control efficacy [2, 26]: 50.2%
- Average fresh weight [2, 27]: 6.5 g
- Control efficacy [2, 27]: 0.4%
- Average fresh weight [2, 28]: 5.1 g
- Control efficacy [2, 28]: 21.8%
- Average fresh weight [2, 29]: 3.5 g
- Control efficacy [2, 29]: 46.0%
- Average fresh weight [2, 30]: 2.7 g
- Control efficacy [2, 30]: 59.4%
- Average fresh weight [2, 31]: 1.2 g
- Control efficacy [2, 31]: 81.2%
- Effect of rain on control efficacy (in words) [2, 32]: obviously affected; also recorded: significantly reduced
- Effect of rain on control efficacy (in words) ([2]; rain 6.0 h after application): relatively small impact; also recorded: almost unaffected

SMILES: Cc1c(C(=O)c2cnn(C)c2OC(=O)C(C)(C)C)ccc(S(C)(=O)=O)c1C1=NOCC1 [Compound II, 4-(3-(4,5-dihydroisoxazol-3-yl)-2-methyl-4-(methylsulfonyl)benzoyl)-1-methyl-1H-pyrazol-5-yl pivalate]
- Corn Growth Status ([1]; in vivo): Good, Normal Growth
- Safety to corn (in words) ([1]; in vivo): safe
- Average fresh weight [2, 7]: 6.0 g
- Control efficacy [2, 7]: 8.8%
- Average fresh weight [2, 8]: 4.7 g
- Control efficacy [2, 8]: 28.7%
- Average fresh weight [2, 9]: 3.4 g
- Control efficacy [2, 9]: 47.9%
- Average fresh weight [2, 10]: 2.3 g
- Control efficacy [2, 10]: 64.4%
- Average fresh weight [2, 11]: 1.0 g
- Control efficacy [2, 11]: 84.7%
- Average fresh weight [2, 12]: 6.2 g
- Control efficacy [2, 12]: 5.7%
- Average fresh weight [2, 13]: 4.6 g
- Control efficacy [2, 13]: 29.1%
- Average fresh weight [2, 14]: 3.6 g
- Control efficacy [2, 14]: 45.2%
- Average fresh weight [2, 15]: 2.5 g
- Control efficacy [2, 15]: 62.1%
- Average fresh weight [2, 16]: 0.6 g
- Control efficacy [2, 16]: 90.8%
- Average fresh weight [2, 17]: 5.9 g
- Control efficacy [2, 17]: 10.0%
- Average fresh weight [2, 18]: 5.3 g
- Control efficacy [2, 18]: 18.8%
- Average fresh weight [2, 19]: 3.3 g
- Control efficacy [2, 19]: 49.0%
- Average fresh weight [2, 20]: 2.4 g
- Control efficacy [2, 20]: 64.0%
- Average fresh weight [2, 21]: 0.8 g
- Control efficacy [2, 21]: 88.5%
- Average fresh weight [2, 22]: 6.0 g
- Control efficacy [2, 22]: 8.8%
- Average fresh weight [2, 23]: 5.1 g
- Control efficacy [2, 23]: 22.2%
- Average fresh weight [2, 24]: 3.9 g
- Control efficacy [2, 24]: 40.6%
- Average fresh weight [2, 25]: 2.0 g
- Control efficacy [2, 25]: 70.1%
- Average fresh weight [2, 26]: 1.0 g
- Control efficacy [2, 26]: 84.7%
- Average fresh weight [2, 27]: 6.1 g
- Control efficacy [2, 27]: 6.5%
- Average fresh weight [2, 28]: 4.7 g
- Control efficacy [2, 28]: 27.6%
- Average fresh weight [2, 29]: 3.6 g
- Control efficacy [2, 29]: 44.8%
- Average fresh weight [2, 30]: 2.2 g
- Control efficacy [2, 30]: 66.7%
- Average fresh weight [2, 31]: 0.8 g
- Control efficacy [2, 31]: 87.4%
- Rainfastness compared with Topramezone (in words) ([2]; in vivo): significantly better rainfastness
- Effect of rain on control efficacy (in words) [2, 32]: remained stable
- Effect of rain on control efficacy (in words) ([2]; rain 0.5 h after application): little impact; also recorded: almost unaffected
